Assay results published in ChEMBL document CHEMBL1909046, “DrugMatrix in vitro pharmacology data”.

Tests used:
D(1A) dopamine receptor = D(1A) dopamine receptor (Homo sapiens, UniProt P21728); assay: DRUGMATRIX: Dopamine D1 radioligand binding (ligand: [3H] SCH-23390); type: cell membranes, CHO, Membrane; settings: Not Active = under 50% inhibition at 10 µM
[1] = DRUGMATRIX: GABAA, Flunitrazepam, Central radioligand binding (ligand: [3H] Flunitrazepam); type: cell membranes, Rattus norvegicus, Wistar, Brain, Membrane; settings: Not Active = under 50% inhibition at 10 µM
[2] = DRUGMATRIX: Nicotinic Acetylcholine radioligand binding (ligand: [125I] Epibatidine); type: cell membranes, Membrane; settings: imr-32; Not Active = under 50% inhibition at 10 µM
Histamine H2 receptor = Histamine H2 receptor (Homo sapiens, UniProt P25021); type: cell membranes, CHO-K1, Membrane; settings: cho-k1; also: in other assays of this panel Not Active means under 50% inhibition at 10 µM
Histamine H2 receptor, sequence (P25021 whole entry): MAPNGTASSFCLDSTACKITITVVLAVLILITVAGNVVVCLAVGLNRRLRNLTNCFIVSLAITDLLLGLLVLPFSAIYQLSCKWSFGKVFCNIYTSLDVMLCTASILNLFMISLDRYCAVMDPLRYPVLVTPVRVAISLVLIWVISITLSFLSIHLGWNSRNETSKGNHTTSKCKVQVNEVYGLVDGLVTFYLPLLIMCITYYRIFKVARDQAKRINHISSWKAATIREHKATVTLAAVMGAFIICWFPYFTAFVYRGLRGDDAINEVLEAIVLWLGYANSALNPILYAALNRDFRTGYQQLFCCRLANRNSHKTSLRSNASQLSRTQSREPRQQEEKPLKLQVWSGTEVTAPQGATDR

[3] = molecular target: Epidermal growth factor receptor (Homo sapiens, UniProt P00533); assay: DRUGMATRIX: Protein Tyrosine Kinase, EGF Receptor enzyme inhibition (substrate: Poly(Glu:Tyr)); type: cell-based, Insect cells; settings: insect cells; Not Active = under 50% inhibition at 10 µM
Epidermal growth factor receptor, sequence (P00533 whole entry): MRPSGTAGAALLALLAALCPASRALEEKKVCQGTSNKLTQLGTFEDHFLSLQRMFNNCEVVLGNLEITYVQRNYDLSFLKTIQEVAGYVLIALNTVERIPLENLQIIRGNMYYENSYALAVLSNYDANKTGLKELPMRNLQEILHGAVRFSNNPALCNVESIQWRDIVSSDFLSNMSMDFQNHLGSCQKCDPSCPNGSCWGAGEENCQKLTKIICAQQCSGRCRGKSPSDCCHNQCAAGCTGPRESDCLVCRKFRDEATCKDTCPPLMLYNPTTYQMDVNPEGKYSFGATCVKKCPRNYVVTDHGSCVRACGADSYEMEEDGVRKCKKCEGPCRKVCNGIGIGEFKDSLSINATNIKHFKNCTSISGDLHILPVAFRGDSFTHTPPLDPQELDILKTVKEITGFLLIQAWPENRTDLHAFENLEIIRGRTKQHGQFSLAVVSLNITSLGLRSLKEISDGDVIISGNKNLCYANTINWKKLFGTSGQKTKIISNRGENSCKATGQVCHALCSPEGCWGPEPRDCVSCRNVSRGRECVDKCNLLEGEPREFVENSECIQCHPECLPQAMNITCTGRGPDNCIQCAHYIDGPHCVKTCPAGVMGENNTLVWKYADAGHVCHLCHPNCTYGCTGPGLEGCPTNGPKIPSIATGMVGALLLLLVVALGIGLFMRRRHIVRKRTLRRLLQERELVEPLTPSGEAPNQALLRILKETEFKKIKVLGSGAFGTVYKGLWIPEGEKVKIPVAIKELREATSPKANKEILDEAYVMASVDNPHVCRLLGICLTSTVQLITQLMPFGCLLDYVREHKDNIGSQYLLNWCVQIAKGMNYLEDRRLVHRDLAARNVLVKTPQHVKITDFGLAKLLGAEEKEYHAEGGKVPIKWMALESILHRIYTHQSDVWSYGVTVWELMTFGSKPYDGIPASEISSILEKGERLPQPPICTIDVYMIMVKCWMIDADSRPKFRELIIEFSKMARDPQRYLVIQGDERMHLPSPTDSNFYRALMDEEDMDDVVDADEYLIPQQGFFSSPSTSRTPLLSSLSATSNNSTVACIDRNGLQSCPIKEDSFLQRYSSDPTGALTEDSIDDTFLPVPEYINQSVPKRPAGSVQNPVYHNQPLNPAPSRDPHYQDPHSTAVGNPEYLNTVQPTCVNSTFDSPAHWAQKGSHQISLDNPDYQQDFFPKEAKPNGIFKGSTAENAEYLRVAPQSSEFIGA

[4] = molecular target: Beta-3 adrenergic receptor (Homo sapiens, UniProt P13945); assay: DRUGMATRIX: Adrenergic beta3 radioligand binding (ligand: [125I] Cyanopindolol); type: cell membranes, HEK293, Membrane; settings: Not Active = under 50% inhibition at 10 µM
Beta-3 adrenergic receptor, sequence (P13945 whole entry): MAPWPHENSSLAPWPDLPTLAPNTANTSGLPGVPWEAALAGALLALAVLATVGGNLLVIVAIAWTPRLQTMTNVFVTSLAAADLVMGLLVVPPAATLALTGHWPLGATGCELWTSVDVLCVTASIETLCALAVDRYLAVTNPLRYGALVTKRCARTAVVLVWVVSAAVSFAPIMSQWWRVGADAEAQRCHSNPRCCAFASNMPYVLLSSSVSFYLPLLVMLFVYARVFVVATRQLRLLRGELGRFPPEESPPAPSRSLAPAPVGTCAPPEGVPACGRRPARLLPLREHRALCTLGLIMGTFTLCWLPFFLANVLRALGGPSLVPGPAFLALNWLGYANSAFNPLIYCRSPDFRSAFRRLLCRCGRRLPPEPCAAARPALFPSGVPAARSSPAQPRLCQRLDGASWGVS

[5] = molecular target: T1, Alpha-1A adrenergic receptor (Rattus norvegicus, UniProt P43140); assay: DRUGMATRIX: Alpha-1A adrenergic receptor radioligand binding (ligand: prazosin); type: cell membranes, Wistar, Submaxillary gland, Membrane; settings: Not Active = under 50% inhibition at 10 µM
T1 sequence (P43140 whole entry): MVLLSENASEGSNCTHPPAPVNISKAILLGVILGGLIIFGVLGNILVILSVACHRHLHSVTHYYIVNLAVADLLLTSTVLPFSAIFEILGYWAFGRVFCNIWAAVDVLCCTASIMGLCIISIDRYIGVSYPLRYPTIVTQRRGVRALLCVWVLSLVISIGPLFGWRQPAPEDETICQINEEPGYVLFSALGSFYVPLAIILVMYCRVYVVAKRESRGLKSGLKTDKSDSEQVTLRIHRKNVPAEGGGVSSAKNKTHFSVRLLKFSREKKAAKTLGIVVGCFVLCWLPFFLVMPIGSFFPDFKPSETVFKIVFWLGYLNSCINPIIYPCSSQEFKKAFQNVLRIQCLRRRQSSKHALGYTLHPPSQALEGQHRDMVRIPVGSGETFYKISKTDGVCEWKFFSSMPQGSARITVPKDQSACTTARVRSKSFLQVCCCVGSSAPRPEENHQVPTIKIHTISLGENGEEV

D(1A) dopamine receptor, sequence (P21728 whole entry): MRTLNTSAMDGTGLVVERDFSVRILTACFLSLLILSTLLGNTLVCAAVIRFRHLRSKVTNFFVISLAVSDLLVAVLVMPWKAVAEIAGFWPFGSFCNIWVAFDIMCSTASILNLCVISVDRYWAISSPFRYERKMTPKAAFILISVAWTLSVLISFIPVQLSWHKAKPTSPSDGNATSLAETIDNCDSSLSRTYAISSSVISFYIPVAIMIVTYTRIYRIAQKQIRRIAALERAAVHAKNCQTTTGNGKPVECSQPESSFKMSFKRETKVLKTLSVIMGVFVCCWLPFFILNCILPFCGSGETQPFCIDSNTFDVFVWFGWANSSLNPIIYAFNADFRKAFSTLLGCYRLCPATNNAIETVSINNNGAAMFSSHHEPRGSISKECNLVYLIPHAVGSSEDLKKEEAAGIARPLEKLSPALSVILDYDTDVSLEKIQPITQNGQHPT

SMILES	IC50 (D(1A) dopamine receptor; cho)	IC50 [1]	Ki [1]	IC50 [2]	Ki [2]	IC50 (Histamine H2 receptor)	IC50 [3]	IC50 ([4]; hek293)	IC50 [5]	IC50 (D(1A) dopamine receptor; read-out: IC50)	Ki (D(1A) dopamine receptor; read-out: Ki)	IC50 ([5]; read-out: IC50)	Ki ([5]; read-out: Ki)	IC50 ([4]; read-out: IC50)	Ki ([4]; read-out: Ki)
CC=CC(=O)N(CC)c1ccccc1C	Not Active	Not Active	Not Active	Not Active	Not Active	Not Active	Not Active	Not Active	Not Active	–	–	–	–	–	–
CC(C)n1c(/C=C/C(O)CC(O)CC(=O)O)c(-c2ccc(F)cc2)c2ccccc21 (configuration not stated) [FLUVASTATIN]	Not Active	Not Active	Not Active	Not Active	Not Active	Not Active	Not Active	Not Active	Not Active	–	–	–	–	–	–
CN1C[C@H](C(=O)N[C@]2(C)O[C@@]3(O)[C@@H]4CCCN4C(=O)[C@H](Cc4ccccc4)N3C2=O)C=C2c3cccc4[nH]cc(c34)C[C@H]21 [ERGOTAMINE]	–	Not Active	Not Active	Not Active	Not Active	Not Active	Not Active	Not Active	–	1.73 µM	0.864 µM	0.00806 µM	0.00326 µM	–	–
CC(=O)OCC(=O)[C@@]1(OC(C)=O)[C@@H](C)C[C@H]2[C@@H]3C[C@H](F)C4=CC(=O)C=C[C@]4(C)[C@@]3(F)[C@@H](O)C[C@@]21C [DIFLORASONE DIACETATE]	Not Active	Not Active	Not Active	Not Active	Not Active	Not Active	Not Active	Not Active	Not Active	–	–	–	–	–	–
C[C@]12CCC(=O)C=C1CC[C@@H]1[C@@H]2C(=O)C[C@@]2(C)[C@H]1CC[C@]2(O)C(=O)CO [CORTISONE]	Not Active	Not Active	Not Active	Not Active	Not Active	Not Active	Not Active	Not Active	Not Active	–	–	–	–	–	–
N=C(N)NCCCCNC(=N)N.O=S(=O)(O)O [ARCAINE SULFATE]	Not Active	Not Active	Not Active	Not Active	Not Active	Not Active	Not Active	Not Active	Not Active	–	–	–	–	–	–
CCCCOC(=O)c1ccc(N)cc1 [BUTAMBEN]	Not Active	Not Active	Not Active	Not Active	Not Active	Not Active	Not Active	Not Active	Not Active	–	–	–	–	–	–
CCOC(=O)c1ccc(N)cc1 [BENZOCAINE]	Not Active	Not Active	Not Active	Not Active	Not Active	Not Active	Not Active	Not Active	Not Active	–	–	–	–	–	–
CC1=Nc2ccc(Cl)cc2S(=O)(=O)N1 [DIAZOXIDE]	Not Active	Not Active	Not Active	Not Active	Not Active	Not Active	Not Active	Not Active	Not Active	–	–	–	–	–	–
COC(=O)[C@H](c1ccccc1Cl)N1CCc2sccc2C1 [CLOPIDOGREL]	Not Active	Not Active	Not Active	Not Active	Not Active	Not Active	Not Active	Not Active	Not Active	–	–	–	–	–	–
NS(=O)(=O)c1cc2c(cc1Cl)NCNS2(=O)=O [HYDROCHLOROTHIAZIDE]	Not Active	Not Active	Not Active	Not Active	Not Active	Not Active	Not Active	Not Active	Not Active	–	–	–	–	–	–
CC[N+](CC)(CC)CCOc1cccc(OCC[N+](CC)(CC)CC)c1OCC[N+](CC)(CC)CC.[I-].[I-].[I-] [GALLAMINE TRIETHIODIDE]	Not Active	Not Active	Not Active	Not Active	Not Active	Not Active	Not Active	Not Active	Not Active	–	–	–	–	–	–
Nc1nc(=O)[nH]cc1F [FLUCYTOSINE]	Not Active	Not Active	Not Active	Not Active	Not Active	Not Active	Not Active	Not Active	Not Active	–	–	–	–	–	–
O=c1[nH]cc(F)c(=O)[nH]1 [FLUOROURACIL]	Not Active	Not Active	Not Active	Not Active	Not Active	Not Active	Not Active	Not Active	Not Active	–	–	–	–	–	–
O=C(O)c1cn(C2CC2)c2cc(N3CCNCC3)c(F)cc2c1=O [CIPROFLOXACIN]	Not Active	Not Active	Not Active	Not Active	Not Active	Not Active	Not Active	Not Active	Not Active	–	–	–	–	–	–
CC1(C)[C@@H](O[C@H]2O[C@H](C(=O)O)[C@@H](O)[C@H](O)[C@H]2O[C@@H]2O[C@H](C(=O)O)[C@@H](O)[C@H](O)[C@H]2O)CC[C@]2(C)[C@H]3C(=O)C=C4[C@@H]5C[C@@](C)(C(=O)O)CC[C@]5(C)CC[C@@]4(C)[C@]3(C)CC[C@@H]12 [GLYCYRRHIZIN]	Not Active	Not Active	Not Active	Not Active	Not Active	Not Active	Not Active	Not Active	Not Active	–	–	–	–	–	–
CCCCCCCCCc1ccc(O)cc1 [4-NONYLPHENOL]	Not Active	Not Active	Not Active	Not Active	Not Active	Not Active	Not Active	–	Not Active	–	–	–	–	4.19 µM	3.14 µM
CCCC[C@@H](CC)COC(=O)c1ccccc1C(=O)OC[C@@H](CC)CCCC [BIS(2-ETHYLHEXYL)PHTHALATE]	Not Active	Not Active	Not Active	Not Active	Not Active	Not Active	Not Active	Not Active	Not Active	–	–	–	–	–	–
CC1COc2c(N3CCN(C)CC3)c(F)cc3c(=O)c(C(=O)O)cn1c23 (configuration not stated) [OFLOXACIN]	Not Active	Not Active	Not Active	Not Active	Not Active	Not Active	Not Active	Not Active	Not Active	–	–	–	–	–	–
COc1ccc([C@@H]2Sc3ccccc3N(CCN(C)C)C(=O)[C@@H]2OC(C)=O)cc1 [DILTIAZEM]	Not Active	Not Active	Not Active	Not Active	Not Active	Not Active	Not Active	Not Active	Not Active	–	–	–	–	–	–
O=C1OCCN1/N=C/c1ccc([N+](=O)[O-])o1 [FURAZOLIDONE]	Not Active	Not Active	Not Active	Not Active	Not Active	Not Active	Not Active	Not Active	Not Active	–	–	–	–	–	–
